In patent US8283473B2, “Platinum complex compound and utilization of the same” (Yakult Honsha Co., Ltd, priority 2008, dated 2012):

system: H460 non-small cell lung cancer cells; test: In vitro cytotoxicity (inhibitory activity on cancer cell proliferation), MTT formazan absorbance assay; assay type: cell-based; conditions: Table 1; 24 hours incubation at 37° C., then 4 hours with tetrazolium dye; absorbance at 550 nm; read-out: IC50 value of platinum complex compounds for H460 non-small cell lung cancer cells
Description: <Investigation of the In Vitro Cytotoxicity (Inhibitory Activity on Cancer Cell Proliferation) for H460 Non-Small Cell Lung Cancer Cells>
On the day prior to the day of agent addition, H460 non-small cell lung cancer cells were plated onto 24-well flatbottom microplates at 12,000 to 20,000 cells/well. An aqueous solution was prepared for each sample (refer to the sample numbers in Table 1) by dissolving the sample in Q-H2O water to a concentration of 100 μM. These aqueous solutions were diluted to provide solutions with various concentrations, and 1 mL of the particular dilution was introduced into each well. After incubation of the microplate for 24 hours at 37° C., […] a 2,5-diphenyl-3-(4,5-dimethylthiazol-2-yl)tetrazolium bromide (MIT) solution (5 mg/mL) was added to each well and incubation was continued for an additional 4 hours at 37° C. 200 μL dimethyl sulfoxide (DMSO) was added to each well in order to dissolve the formazan produced and precipitated as a result of reduction of the MIT. The absorbance at 550 nm of each well was measured using a microplate reader.
The absorbance of each well was measured three times and each experiment was repeated at least three times. The IC50 value was calculated as the concentration that provided a 50% formazan production with reference to the control (no agent addition).

| Molecule | IC50 |
| --- | --- |
| N.N.[Cl][Pt][Cl] [sample 3, cis-diamminedichloridoplatinum(II)] | 23 µM |

same assay, conditions: Table 2; same procedure, 24 hours incubation at 37° C.; absorbance at 550 nm; read-out: IC50 value of platinum complex compounds for H460 non-small cell lung cancer cells

| Molecule | IC50 |
| --- | --- |
| [{cis-Pt(NH3)2}2(μ-OH)(μ-tetrazolato-5-ethylacetate-N2,N3)](NO3)2 [sample 7] | 22 µM |
| [{cis-Pt(NH3)2}2(μ-OH)(μ-tetrazolato-N2,N3)](ClO4)2 [sample 5] | 8.3 µM |
| [{cis-Pt(NH3)2}2(μ-OH)(μ-pyrazolato)](NO3)2 [sample 8] | > 100 µM |
| N.N.[Cl][Pt][Cl] [sample 3, cis-diamminedichloridoplatinum(II)] | 23 µM |
| O=[N+]([O-])O.O=[N+]([O-])[O-].[NH2][Pt]1([NH2])[O][Pt]([NH2])([NH2])[n+]2ncc[n]21 [sample 9, [{cis-Pt(NH3)2}2(μ-OH)(μ-1,2,3-triazolato-N1,N2)](NO3)2] | 62 µM |
| [{cis-Pt(NH3)2}2(μ-OH)(μ-5-methyltetrazolato-N2,N3)](NO3)2 [sample 6] | 20 µM |
| [{cis-Pt(NH3)2}2(μ-OH)(μ-tetrazolato-N1,N2)](ClO4)2 [sample 4] | 21 µM |
